Assay [1] addresses p70S6K (p70 ribosomal protein S6 kinase) (Homo sapiens, UniProt P23443). Kind of assay: In vitro kinase inhibition, enzymatic assay, p70S6K. Type of assay: biochemical. Conditions: at a concentration of 200 nM; read-out: inhibition rate on p70S6K. The text has this:
(§1) An in vitro enzymatic assay system was used to test the inhibitory effect of Compound 8 on certain kinase targets.

The target in a further assay is PKA (protein kinase A) (Homo sapiens, UniProt P17612). The assay is described as follows: In vitro kinase inhibition, enzymatic assay, PKA. In kind it is biochemical. Conditions: at a concentration of 200 nM; read-out: inhibition rate on PKA.
Source text: as §1

Assay [2] relates to STAT3 phosphorylation induced by cytokine IL-6 stimulation in CD4+ T cells. The assay is described as follows: Inhibition of STAT3 phosphorylation induced by IL-6 in CD4+ T cells in human whole blood (flow cytometry). Type of assay: cell-based. The text has this: (§2) The inhibitory effect of Compound 8 on STAT5 phosphorylation induced by cytokine IL-2 stimulation in CD4+ T cells in human whole blood, as well as on STAT3 phosphorylation induced by cytokine IL-6 stimulation in CD4+ T cells in human whole blood, was detected using flow cytometry.
In general terms: Flow cytometry measures light scatter and fluorescence of single cells or particles in a stream.

Assay [3] deals with STAT5 phosphorylation induced by cytokine IL-2 stimulation in CD4+ T cells. Kind of assay: Inhibition of STAT5 phosphorylation induced by IL-2 in CD4+ T cells in human whole blood (flow cytometry). In kind it is cell-based.
Source text: as §2

p70S6K (p70 ribosomal protein S6 kinase), sequence (P23443 whole entry): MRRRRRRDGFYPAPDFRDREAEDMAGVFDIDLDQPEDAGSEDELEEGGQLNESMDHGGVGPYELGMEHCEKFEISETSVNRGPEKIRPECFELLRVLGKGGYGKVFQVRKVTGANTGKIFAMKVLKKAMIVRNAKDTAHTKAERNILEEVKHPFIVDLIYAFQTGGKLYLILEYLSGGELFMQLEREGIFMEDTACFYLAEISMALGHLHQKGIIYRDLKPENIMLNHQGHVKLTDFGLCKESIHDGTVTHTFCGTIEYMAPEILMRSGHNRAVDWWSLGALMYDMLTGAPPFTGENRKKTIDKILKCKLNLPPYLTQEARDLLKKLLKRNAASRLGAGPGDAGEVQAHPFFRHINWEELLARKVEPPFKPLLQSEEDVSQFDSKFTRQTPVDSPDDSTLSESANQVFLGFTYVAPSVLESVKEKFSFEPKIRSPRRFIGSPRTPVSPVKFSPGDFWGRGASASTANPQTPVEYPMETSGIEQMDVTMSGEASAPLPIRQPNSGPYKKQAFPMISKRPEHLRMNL

In the case of `CCS(=O)(=O)N1CC(CC#N)(n2cc(-c3ccnc4[nH]ccc34)cn2)C1` [Compound 8], the inhibition at 0.2 µM in assay [1] stood at 67%; on PKA (protein kinase A), 75%. Also, the half-inhibitory concentration (IC50) was 1510 ± 60 nM in assay [2] and 460 ± 30 nM in assay [3].

One may read the inhibition as the change of the read-out against control, counted positive when it falls. What is called IC50 is the concentration that inhibits the measured activity by half. Higher therefore signals a need for much substance.

Source of the values: US20260258030A1, “USE AND TREATMENT METHOD OF AZETIDINE DERIVATIVE” (SICHUAN KELUN-BIOTECH BIOPHARMACEUTICAL CO., LTD., priority 2022, published 2026).
